Data: BigSolDB 2.1

C[C@@H]1CC[C@H]2[C@@H](C)C(=O)O[C@@H]3O[C@@]4(C)CC[C@@H]1[C@]32OO4
solubility (mole fraction)
Conditions | 283.15 K | 288.15 K | 293.15 K | 298.15 K | 303.15 K | 308.15 K | 313.15 K | 318.15 K | 323.15 K
in acetone | 0.00388 | 0.0051 | 0.00673 | 0.00863 | 0.0114 | 0.0145 | 0.0181 | 0.0223 | 0.0278
in acetonitrile | 0.000198 | 0.000257 | 0.000356 | 0.000518 | 0.000723 | 0.00103 | 0.00143 | 0.00196 | 0.0027
in chloroform | 0.0487 | 0.0613 | 0.0795 | 0.101 | 0.127 | 0.157 | 0.193 | 0.236 | 0.287
in cyclohexane | 0.00044 | 0.000585 | 0.000745 | 0.00106 | 0.00137 | 0.00171 | 0.00209 | 0.00265 | 0.00341
in ethyl acetate | 0.00525 | 0.00786 | 0.0117 | 0.0153 | 0.0205 | 0.0282 | 0.0377 | 0.0499 | 0.0657
in methanol | 0.000559 | 0.000773 | 0.00111 | 0.00145 | 0.00195 | 0.00267 | 0.00375 | 0.00477 | 0.00622
in toluene | 0.0375 | 0.0435 | 0.052 | 0.0603 | 0.0711 | 0.0815 | 0.0937 | 0.107 | 0.122
